From patent US20030176406A1, “Polycaprolactone-b-poly (ethylene oxide) copolymer non-cross-linked micelles as a delivery vehicle for steroid” (McGill University, priority 1999, published 2003)

Assay: Kinetic release of DHT from PCL20-b-PEO44 micelles (dialysis method, PBS pH 7.4, 37° C.)
Assay type: physicochemical
Conditions: control solution (drug alone)
Protocol: To the dried micelles, 100 μL of phosphate buffer solution, PBS (pH 7.4) was added. To ensure that the micelles were well dispersed in PBS, the solutions were vortexed. The dispersed micelles were left to stand in a 37° C. warm room for 30 minutes. Once the micelle solution had reached 37° C., it was placed in a dialysis bag which was immersed in a large vial containing warmed PBS (10 mL PBS, pH=7.4, 37° C.). […] The aliquot was dispersed in 4 mL of scintillation cocktail and then counted. Following the removal of each 100 uL aliquot, a 100 uL aliquot of fresh PBS was added.
The dialysis method was used to study the release of DHT from two micelle solutions which differed in the amount of DHT that they contained. The concentration of the solutions studied were 8 mM and 40 mM.

C[C@]12CCC(=O)C[C@@H]1CC[C@@H]1[C@@H]2CC[C@]2(C)[C@@H](O)CC[C@@H]12 [DHT, dihydrotestosterone]
time to complete release: 3 h
